Patent US20120165304A1, “6,7,8,9-Tetrahydro-5H-1,4,7,10a-tetraaza-cyclohept[f]indene derivatives, pharmaceutical compositions containing these compounds, their use and processes for preparing them” (BOEHRINGER INGELHEIM INTERNATIONAL GMBH, priority 2008, published 2012)

Molecular target: human 5-HT2C receptor (Homo sapiens, UniProt P28335, I156V/I160V/N158S)
Assay: cell-based

Sequence of human 5-HT2C receptor (P28335 33-458 I156V/N158S/I160V limits assumed): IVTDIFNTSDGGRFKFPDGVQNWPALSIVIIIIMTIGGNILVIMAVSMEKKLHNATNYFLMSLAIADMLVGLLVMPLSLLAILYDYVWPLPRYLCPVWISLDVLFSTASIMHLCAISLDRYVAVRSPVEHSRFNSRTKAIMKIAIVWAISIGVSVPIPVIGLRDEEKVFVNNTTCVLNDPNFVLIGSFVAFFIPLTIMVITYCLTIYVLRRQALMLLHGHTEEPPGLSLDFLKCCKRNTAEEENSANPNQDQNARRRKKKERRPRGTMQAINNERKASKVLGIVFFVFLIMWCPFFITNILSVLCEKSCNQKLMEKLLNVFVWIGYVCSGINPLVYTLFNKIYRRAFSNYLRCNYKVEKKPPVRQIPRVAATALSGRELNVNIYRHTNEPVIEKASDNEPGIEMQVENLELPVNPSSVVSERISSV

With `O=C(C1CN(c2c3c(nc4ccnn24)CCNCC3)C1)N1CCc2cc(F)ccc21` [Example 31.217] the EC50 was 56 nM.

`CCn1c(C2CN(c3c4c(nc5ccnn35)CCNCC4)C2)nc2cc(F)ccc21` [Example 34.39] was tested, and the EC50 was 666 nM.

For `Cn1c(C2CN(c3c4c(nc5ccnn35)CCNCC4)C2)nc2cc(C#N)ccc21` [Example 34.18], the EC50 was 388 nM.

With `CC(=O)NC1CCN(C(=O)C2CN(c3c4c(nc5ccnn35)CCN(C)CC4)C2)CC1` [Example 36.28] the EC50 was 380 nM.

`CC1CN(C(=O)C2CN(c3c4c(nc5ccnn35)CCNCC4)C2)CC(C)N1C` (centres unmarked) [Example 37.4] was tested, and the EC50 was 4 nM.

`Cc1csc(C2CN(c3c4c(nc5ccnn35)CCNCC4)C2)n1` [Example 11, 10-[3-(4-Methyl-thiazol-2-yl)-azetidin-1-yl]-6,7,8,9-tetrahydro-5H-1,4,7,10a-tetraaza-cyclohepta[f]indene] showed an EC50 of 161 nM.

In the case of `COc1ccc2ccc(OC3CN(c4c5c(nc6ccnn46)CCNCC5)C3)cc2c1` [Example 35.11], the EC50 is reported as 926 nM.

Molecule `O=C(NCC1CCOC1)C1CN(c2c3c(nc4ccnn24)CCNCC3)C1` (centres unmarked) [Example 37.61] has an EC50 of 64 nM.

`N#Cc1cccc(OC2CN(c3c4c(nc5ccnn35)CCNCC4)C2)c1` [Example 35.4] showed an EC50 of 81 nM.

`Cc1cccc(OC2CN(c3c4c(nc5ccnn35)CCNCC4)C2)c1` [Example 35.51] gave an EC50 of 126 nM.

`CC(C)(O)[C@@H]1CCCN1C(=O)C1CN(c2c3c(nc4ccnn24)CCNCC3)C1` [Example 31.194] gave an EC50 of 2560 nM.

Molecule `O=C(C1CN(c2c3c(nc4ccnn24)CCNCC3)C1)N1CCC(c2ccccc2F)C1` (centres unmarked) [Example 31.116] has an EC50 of 60 nM.

`Cc1ccc(OC2CN(c3c4c(nc5ccnn35)CCNCC4)C2)cn1` [Example 35.52] showed an EC50 of 147 nM.

With `Cc1ncccc1OC1CN(c2c3c(nc4ccnn24)CCNCC3)C1` [Example 35.24] the EC50 was 120 nM.

Work on `OC1CCN(c2c3c(nc4ccnn24)CCNCC3)CC1` [Example 1.36] yielded an EC50 of 1850 nM.

`CCC1CCC(C)N(C(=O)C2CN(c3c4c(nc5ccnn35)CCNCC4)C2)C1` (centres unmarked) [Example 31.184] showed an EC50 of 287 nM.

In the case of `O=C(C1CN(c2c3c(nc4ccnn24)CCNCC3)C1)N1CCCC(c2cccc(F)c2)C1` (centres unmarked) [Example 31.215], the EC50 is reported as 155 nM.

`CC1CCCN1C(=O)C1CN(c2c3c(nc4ccnn24)CCNCC3)C1` (centres unmarked) [Example 31.73] showed an EC50 of 252 nM.

`CCc1cnn2c(N3CCCCC3)c3c(nc12)CCNCC3` [Example 25, 3-Ethyl-10-piperidin-1-yl-6,7,8,9-tetrahydro-5H-1,4,7,10a-tetraaza-cyclohepta[f]indene] showed an EC50 of 106 nM.

Work on `O=C(C1CN(c2c3c(nc4ccnn24)CCNCC3)C1)N1CCC(c2cccc(F)c2)CC1` [Example 31.211] yielded an EC50 of 31 nM.

`CN(Cc1ccc(Cl)cc1Cl)C(=O)C1CN(c2c3c(nc4ccnn24)CCNCC3)C1` [Example 31.164] gave an EC50 of 111 nM.

Work on `CCN(C(=O)C1CN(c2c3c(nc4ccnn24)CCNCC3)C1)C(C)C` [Example 31.11] yielded an EC50 of 306 nM.

For `C#CC1CCN(C(=O)C2CN(c3c4c(nc5ccnn35)CCNCC4)C2)C1` (centres unmarked) [Example 38, (3-Ethynyl-pyrrolidin-1-yl)-[1-(6,7,8,9-tetrahydro-5H-1,4,7,10a-tetraaza-cyclohepta[f]inden-10-yl)-azetidin-3-yl]-methanone], the EC50 was 6 nM.

Work on `CN(Cc1cccc2ccccc12)C(=O)C1CN(c2c3c(nc4ccnn24)CCNCC3)C1` [Example 31.76] yielded an EC50 of 81 nM.

`C#CC1CCN(C(=O)C2CN(c3c4c(nc5ccnn35)CCN(C)CC4)C2)C1` (centres unmarked) [Example 39, (3-Ethynyl-pyrrolidin-1-yl)-[1-(7-methyl-6,7,8,9-tetrahydro-5H-1,4,7,10a-tetraaza-cyclohept[f]inden-10-yl)-azetidin-3-yl]-methanone] showed an EC50 of 78 nM.

`c1cncc(OC2CN(c3c4c(nc5ccnn35)CCNCC4)C2)c1` [Example 35.42] showed an EC50 of 212 nM.

Molecule `FC(F)(F)Oc1ccc(OC2CN(c3c4c(nc5ccnn35)CCNCC4)C2)cc1` [Example 35.32] has an EC50 of 411 nM.

Work on `CCCCN1CCN(C(=O)C2CN(c3c4c(nc5ccnn35)CCNCC4)C2)CC1` [Example 37.25] yielded an EC50 of 3 nM.

With `O=C(C1CN(c2c3c(nc4ccnn24)CCNCC3)C1)N1CC(F)(F)C(F)(F)C1` [Example 31.200] the EC50 was 28 nM.

For `O=C(C1CN(c2c3c(nc4ccnn24)CCNCC3)C1)N1CCCC(F)(F)CC1` [Example 40, (4,4-Difluoro-perhydro-azepin-1-yl)-[1-(6,7,8,9-tetrahydro-5H-1,4,7,10a-tetraaza-cyclohept[f]inden-10-yl)-azetidin-3-yl]-methanone], the EC50 was 6 nM.

With `O=C(C1CN(c2c3c(nc4ccnn24)CCNCC3)C1)N1CC=C(c2ccccc2)CC1` [Example 31.181] the EC50 was 84 nM.

For `O=C(NC1CCC(C(F)(F)F)CC1)C1CN(c2c3c(nc4ccnn24)CCNCC3)C1` (centres unmarked) [Example 37.60], the EC50 was 49 nM.

With `CC(C)(C)NC1CCN(C(=O)C2CN(c3c4c(nc5ccnn35)CCNCC4)C2)CC1` [Example 37.22] the EC50 was 2 nM.

For `CC1(C)CC(NC(=O)C2CN(c3c4c(nc5ccnn35)CCNCC4)C2)CC(C)(C)N1` [Example 37.7], the EC50 was 15 nM.

`COC[C@H]1CCN1c1c2c(nc3ccnn13)CCNCC2` [Example 8.1] showed an EC50 of 75 nM.

With `O=C(C1CN(c2c3c(nc4ccnn24)CCNCC3)C1)N1CCC(Nc2ccccc2)CC1` [Example 37.43] the EC50 was 6 nM.

`O=C(C1CN(c2c3c(nc4ccnn24)CCNCC3)C1)N1CCC(O)(c2cccc(C(F)(F)F)c2)CC1` [Example 31.226] gave an EC50 of 74 nM.

With `C=C1CCN(C(=O)C2CN(c3c4c(nc5ccnn35)CCNCC4)C2)CC1` [Example 31.229] the EC50 was 108 nM.

`O=C(C1CN(c2c3c(nc4ccnn24)CCNCC3)C1)N1CCc2cc(Cl)ccc21` [Example 31.147] showed an EC50 of 78 nM.

In the case of `Cc1cnn2c(N3CC(C(=O)N4CCc5cc(F)ccc54)C3)c3c(nc12)CCNCC3` [Example 31.245], the EC50 is reported as 26 nM.

`c1cc2nc3c(c(N4CCC4)n2n1)CCNCC3` [Example 7.4] was tested, and the EC50 was 5 nM.

`O=C(NC1CCCCC1C(F)(F)F)C1CN(c2c3c(nc4ccnn24)CCNCC3)C1` (centres unmarked) [Example 37.58] was tested, and the EC50 was 224 nM.

`Fc1cccc(F)c1OC1CN(c2c3c(nc4ccnn24)CCNCC3)C1` [Example 35.41] gave an EC50 of 9 nM.

Molecule `O=C(NC1CCCCC1)C1CN(c2c3c(nc4ccnn24)CCNCC3)C1` [Example 37.71] has an EC50 of 114 nM.

Molecule `c1ccc(C2OCCN(c3c4c(nc5ccnn35)CCNCC4)C2c2ccccc2)cc1` (centres unmarked) [Example 1.40] has an EC50 of 1290 nM.

Molecule `CCN1CCN(C(=O)C2CN(c3c4c(nc5ccnn35)CCNCC4)C2)CC1=O` [Example 37.65] has an EC50 of 5 nM.

Work on `O=C(C1CCCN(c2c3c(nc4ccnn24)CCNCC3)C1)N1CCC(C2CCCCC2)CC1` (centres unmarked) [Example 1.58] yielded an EC50 of 4710 nM.

Molecule `Cc1ccc2c(c1)CCN2C(=O)C1CN(c2c3c(nc4ccnn24)CCNCC3)C1` [Example 31.156] has an EC50 of 135 nM.

For `COc1ccc(Cl)c(OCC2CN(c3c4c(nc5ccnn35)CCNCC4)C2)c1` [Example 15.27], the EC50 was 7 nM.

`O=C(C1CN(c2c3c(nc4ccnn24)CCNCC3)C1)N1CCC(Oc2ccccn2)CC1` [Example 31.230] gave an EC50 of 54 nM.

`Fc1cccc(Cl)c1OCC1CN(c2c3c(nc4ccnn24)CCNCC3)C1` [Example 15.14] was tested, and the EC50 was 2 nM.

In the case of `CCC(CC)CNC(=O)C1CN(c2c3c(nc4ccnn24)CCNCC3)C1` [Example 37.88], the EC50 is reported as 36 nM.

Molecule `O=C(C1CN(c2c3c(nc4ccnn24)CCNCC3)C1)N1CCC(Oc2ccc(F)c(F)c2)CC1` [Example 31.146] has an EC50 of 91 nM.
